# Assays:
# [1] = pH, osmolality, assay and impurities of undiluted batches; impact of buffer strength; assay type: physicochemical
# Description: From the results obtained in Example 4 it follows that the concentration of excipients may be such that the resulting ticagrelor solution is hypertonic. The osmolality and pH of several batches was checked. […] In addition, a screening was conducted on the impact of buffer strength on pH and osmolality.
# [2] = tested on: glycopeptide intermediate Staphylococcus aureus (GISA); settings: ex-vivo; cited from earlier work
# [3] = Storage stability of ticagrelor 6 mg/ml in HPβCD 40% w/w at pH 4.5, 5.5, 6.5, 40° C./75% RH, related substances by HPLC; assay type: physicochemical; settings: for Acetal impurity, average content / Amine impurity, average content / Impurity at relative retention time 1.52, average content / Oxidative impurity 1, average content / Oxidative impurity 2, average content / Regiomer impurity, average content / Sum impurities >0.05 / Total impurities / Triol Impurity, average content: 40° C./75% RH
# Description: HPBCD was dissolved in a buffer solution of pH 4.5, 5.5 or 6.5 prepared separately in water. […] The ticagrelor in buffer solution was filtered through a 0.22 micron filtered and filled in USP Type I glass vials. The vials were stoppered and stored. All precautions were taken during manufacturing, such as N2 purging and avoiding direct exposure to light. The vials were stored at 40° C. and 75% Relative Humidity (RH). To determine the stability of the formulations, batches were evaluated using a related substance method on HPLC. A Gradient HPLC method was used to analyze impurities in formulations using a YMC-Pack Pro C18 column (100×4.6 mm, S-3 μm 12 nm). Good separation was obtained for all the impurities.
# [4] = Flocculation test (20 μl sample material in 1 ml diluent); assay type: physicochemical
# [5] = HPβCD 22.5% w/w, 19 mM phosphate buffer pH 7.5
# [6] = HPβCD 25.0% w/w, 19 mM phosphate buffer pH 7.5
# [7] = HPβCD 27.5% w/w, 19 mM phosphate buffer pH 7.5
# [8] = HPβCD 30.0% w/w, 19 mM phosphate buffer pH 7.5
# [9] = HPβCD 32.5% w/w, 19 mM phosphate buffer pH 7.5
# [10] = phosphate buffer pH 7.5 strength 0.19 mM
# [11] = phosphate buffer pH 7.5 strength 5 mM
# [12] = phosphate buffer pH 7.5 strength 10 mM
# [13] = phosphate buffer pH 7.5 strength 19 mM
smiles,measurement,setting,value
"CCCSc1nc(N[C@@H]2C[C@H]2c2ccc(F)c(F)c2)c2nnn([C@@H]3C[C@H](OCCO)[C@@H](O)[C@H]3O)c2n1 [ticagrelor, (1S,2S,3R,5S)-3-{7-[(1R,2S)-2-(3,4-difluorophenyl)cyclopropylamino]5-(propylthio)-3H-(1,2,3)triazolo (4,5-D)pyrimidin-3-yl}-5-(2 hydroxyethoxy) cyclopentane-1,2-diol]",Assay,[1]; [5],98.15%
same,Osmolality undiluted,[1]; [5],392 mOsm/kg
same,Total impurities,[1]; [5],0.39%
same,pH undiluted,[1]; [5],7.67
same,Assay,[1]; [6],103.23%
same,Osmolality undiluted,[1]; [6],493 mOsm/kg
same,Total impurities,[1]; [6],0.41%
same,pH undiluted,[1]; [6],7.69
same,Assay,[1]; [7],104.27%
same,Osmolality undiluted,[1]; [7],549 mOsm/kg
same,Total impurities,[1]; [7],0.42%
same,pH undiluted,[1]; [7],7.69
same,Assay,[1]; [8],107.64%
same,Osmolality undiluted,[1]; [8],638 mOsm/kg
same,Total impurities,[1]; [8],0.44%
same,pH undiluted,[1]; [8],7.74
same,Assay,[1]; [9],99.26%
same,Osmolality undiluted,[1]; [9],813 mOsm/kg
same,Total impurities,[1]; [9],0.41%
same,pH undiluted,[1]; [9],7.68
same,Assay,[1]; [10],102.23%
same,Osmolality sample,[1]; [10],809 mOsm/kg
same,Total impurities,[1]; [10],0.42%
same,pH sample,[1]; [10],7.18
same,Assay,[1]; [11],100.49%
same,Osmolality sample,[1]; [11],703 mOsm/kg
same,Total impurities,[1]; [11],0.40%
same,pH sample,[1]; [11],7.66
same,Assay,[1]; [12],102.98%
same,Osmolality sample,[1]; [12],724 mOsm/kg
same,Total impurities,[1]; [12],0.42%
same,pH sample,[1]; [12],7.69
same,Assay,[1]; [13],102.58%
same,Osmolality sample,[1]; [13],758 mOsm/kg
same,Total impurities,[1]; [13],0.42%
same,pH sample,[1]; [13],7.70
same,minimal bactericidal concentration,[2],20 microgram/ml
same,regiomer impurity level,"[3]; 4 weeks 40° C. and 75% RH, specification limit 0.3%",~0.3%
same,"Acetal impurity, average content","[3]; pH 4.5, T = 0",0.05%
same,"Amine impurity, average content","[3]; pH 4.5, T = 0",0.05%
same,"Impurity at relative retention time 1.52, average content","[3]; pH 4.5, T = 0",0.03%
same,"Oxidative impurity 1, average content","[3]; pH 4.5, T = 0",0.00%
same,"Oxidative impurity 2, average content","[3]; pH 4.5, T = 0",0.00%
same,"Regiomer impurity, average content","[3]; pH 4.5, T = 0",0.00%
same,Sum impurities >0.05,"[3]; pH 4.5, T = 0",0.22%
same,Total impurities,"[3]; pH 4.5, T = 0",0.36%
same,"Triol Impurity, average content","[3]; pH 4.5, T = 0",0.05%
same,"Acetal impurity, average content","[3]; pH 4.5, T = 2 weeks",0.06%
same,"Amine impurity, average content","[3]; pH 4.5, T = 2 weeks",0.05%
same,"Impurity at relative retention time 1.52, average content","[3]; pH 4.5, T = 2 weeks",0.04%
same,"Oxidative impurity 1, average content","[3]; pH 4.5, T = 2 weeks",0.00%
same,"Oxidative impurity 2, average content","[3]; pH 4.5, T = 2 weeks",0.00%
same,"Regiomer impurity, average content","[3]; pH 4.5, T = 2 weeks",0.00%
same,Sum impurities >0.05,"[3]; pH 4.5, T = 2 weeks",0.23%
same,Total impurities,"[3]; pH 4.5, T = 2 weeks",0.40%
same,"Triol Impurity, average content","[3]; pH 4.5, T = 2 weeks",0.05%
same,"Acetal impurity, average content","[3]; pH 4.5, T = 4 weeks",0.05%
same,"Amine impurity, average content","[3]; pH 4.5, T = 4 weeks",0.05%
same,"Impurity at relative retention time 1.52, average content","[3]; pH 4.5, T = 4 weeks",0.03%
same,"Oxidative impurity 1, average content","[3]; pH 4.5, T = 4 weeks",0.01%
same,"Oxidative impurity 2, average content","[3]; pH 4.5, T = 4 weeks",0.02%
same,"Regiomer impurity, average content","[3]; pH 4.5, T = 4 weeks",0.42%
same,Sum impurities >0.05,"[3]; pH 4.5, T = 4 weeks",0.63%
same,Total impurities,"[3]; pH 4.5, T = 4 weeks",0.80%
same,"Triol Impurity, average content","[3]; pH 4.5, T = 4 weeks",0.05%
same,"Acetal impurity, average content","[3]; pH 5.5, T = 0",0.05%
same,"Amine impurity, average content","[3]; pH 5.5, T = 0",0.04%
same,"Impurity at relative retention time 1.52, average content","[3]; pH 5.5, T = 0",0.02%
same,"Oxidative impurity 1, average content","[3]; pH 5.5, T = 0",0.00%
same,"Oxidative impurity 2, average content","[3]; pH 5.5, T = 0",0.00%
same,"Regiomer impurity, average content","[3]; pH 5.5, T = 0",0.00%
same,Sum impurities >0.05,"[3]; pH 5.5, T = 0",0.16%
same,Total impurities,"[3]; pH 5.5, T = 0",0.33%
same,"Triol Impurity, average content","[3]; pH 5.5, T = 0",0.05%
same,"Acetal impurity, average content","[3]; pH 5.5, T = 2 weeks",0.05%
same,"Amine impurity, average content","[3]; pH 5.5, T = 2 weeks",0.05%
same,"Impurity at relative retention time 1.52, average content","[3]; pH 5.5, T = 2 weeks",0.03%
same,"Oxidative impurity 1, average content","[3]; pH 5.5, T = 2 weeks",0.00%
same,"Oxidative impurity 2, average content","[3]; pH 5.5, T = 2 weeks",0.00%
same,"Regiomer impurity, average content","[3]; pH 5.5, T = 2 weeks",0.00%
same,Sum impurities >0.05,"[3]; pH 5.5, T = 2 weeks",0.21%
same,Total impurities,"[3]; pH 5.5, T = 2 weeks",0.36%
same,"Triol Impurity, average content","[3]; pH 5.5, T = 2 weeks",0.05%
same,"Acetal impurity, average content","[3]; pH 5.5, T = 4 weeks",0.05%
same,"Amine impurity, average content","[3]; pH 5.5, T = 4 weeks",0.04%
same,"Impurity at relative retention time 1.52, average content","[3]; pH 5.5, T = 4 weeks",0.02%
same,"Oxidative impurity 1, average content","[3]; pH 5.5, T = 4 weeks",0.01%
same,"Oxidative impurity 2, average content","[3]; pH 5.5, T = 4 weeks",0.02%
same,"Regiomer impurity, average content","[3]; pH 5.5, T = 4 weeks",0.30%
same,Sum impurities >0.05,"[3]; pH 5.5, T = 4 weeks",0.45%
same,Total impurities,"[3]; pH 5.5, T = 4 weeks",0.65%
same,"Triol Impurity, average content","[3]; pH 5.5, T = 4 weeks",0.05%
same,"Acetal impurity, average content","[3]; pH 6.5, T = 0",0.06%
same,"Amine impurity, average content","[3]; pH 6.5, T = 0",0.05%
same,"Impurity at relative retention time 1.52, average content","[3]; pH 6.5, T = 0",0.03%
same,"Oxidative impurity 1, average content","[3]; pH 6.5, T = 0",0.00%
same,"Oxidative impurity 2, average content","[3]; pH 6.5, T = 0",0.00%
same,"Regiomer impurity, average content","[3]; pH 6.5, T = 0",0.00%
same,Sum impurities >0.05,"[3]; pH 6.5, T = 0",0.22%
same,Total impurities,"[3]; pH 6.5, T = 0",0.36%
same,"Triol Impurity, average content","[3]; pH 6.5, T = 0",0.06%
same,"Acetal impurity, average content","[3]; pH 6.5, T = 2 weeks",0.06%
same,"Amine impurity, average content","[3]; pH 6.5, T = 2 weeks",0.05%
same,"Impurity at relative retention time 1.52, average content","[3]; pH 6.5, T = 2 weeks",0.04%
same,"Oxidative impurity 1, average content","[3]; pH 6.5, T = 2 weeks",0.00%
same,"Oxidative impurity 2, average content","[3]; pH 6.5, T = 2 weeks",0.00%
same,"Regiomer impurity, average content","[3]; pH 6.5, T = 2 weeks",0.00%
same,Sum impurities >0.05,"[3]; pH 6.5, T = 2 weeks",0.23%
same,Total impurities,"[3]; pH 6.5, T = 2 weeks",0.41%
same,"Triol Impurity, average content","[3]; pH 6.5, T = 2 weeks",0.06%
same,"Acetal impurity, average content","[3]; pH 6.5, T = 4 weeks",0.06%
same,"Amine impurity, average content","[3]; pH 6.5, T = 4 weeks",0.05%
same,"Impurity at relative retention time 1.52, average content","[3]; pH 6.5, T = 4 weeks",0.03%
same,"Oxidative impurity 1, average content","[3]; pH 6.5, T = 4 weeks",0.00%
same,"Oxidative impurity 2, average content","[3]; pH 6.5, T = 4 weeks",0.04%
same,"Regiomer impurity, average content","[3]; pH 6.5, T = 4 weeks",0.35%
same,Sum impurities >0.05,"[3]; pH 6.5, T = 4 weeks",0.56%
same,Total impurities,"[3]; pH 6.5, T = 4 weeks",0.72%
same,"Triol Impurity, average content","[3]; pH 6.5, T = 4 weeks",0.05%
same,Flocculation test,"[4]; HPβCD 30% w/w, ticagrelor 5 mg/ml",passed
same,Flocculation test,"[4]; HPβCD 35% w/w, ticagrelor 5 mg/ml",passed
same,Flocculation test,"[4]; HPβCD 40% w/w, ticagrelor 5 mg/ml",passed
same,Flocculation test,"[4]; HPβCD 40% w/w, ticagrelor 10 mg/ml",passed
same,Flocculation test,"[4]; SBECD 40% w/w, ticagrelor 5 mg/ml",passed
